According to patent US20200338045A1, “ISOINDOLINE COMPOSITIONS AND METHODS FOR TREATING NEURODEGENERATIVE DISEASE” (priority 2017, published 2020):

Tested on: plasma proteins
Assay: LC/MSMS protein expression in plasma (COG0102)
Assay type: in vivo, human
Experimental: Plasma and CSF protein expression were measured by LC/MSMS in samples drawn prior to dosing (Day 0) and at end of dosing (Day 28) and were compared within each patient and between dosing groups.
This trial (ClinicalTrials.gov NCT02907567) was a randomized, double-blind, placebo-controlled clinical trial in mild to moderate Alzheimer's patients (MMSE 18-26) (See FIG. 1 for clinical trial design). The trial was conducted at six sites in Australia. Patients were randomized into placebo (n=5) or CT1812-treated groups: 90 mg (n=4), 280 mg (n=5) or 560 mg (n=5) and treated once daily for 28 days. Clinical chemistry was done at Sydpath (Sydney, AU). Pharmacokinetics were done at CPR Pharma Services (Adelaide, AU). Cerebrospinal fluid samples were taken at screening and day 21-28 of treatment and aliquoted. Plasma samples were taken at screening or Day 1 (one sample) and day 14-28, then spun down to separate plasma and aliquoted. One set of CSF samples was analyzed for Alzheimer's disease biomarkers; protein measurements (Aβ42, A1340, total tau, tau phosphorylated at threonine 181 (phosphorylated tau), NFL and neurogranin) were performed using commercially available ELISA assays from Fujirebio according to the manufacturer's instructions (INNOTEST β-AMYLOID(1-42), INNOTEST β-AMYLOID(1-40), INNOTEST hTau Ag, INNOTEST PHOSPHO-TAU(181P), Uman Diagnostics NFL assay). Neurogranin was measured with a sandwich ELISA method using antibodies Ng2 and Ng22 developed at the University of Gotteborg (Kvartsberg et al. 2015). Identical aliquots of CSF, and plasma were analyzed for protein expression changes via LC/MSMS at Caprion (see below).
Matched screening and day 28 plasma and CSF samples were analyzed by LC/MSMS at Caprion Biosciences Inc. Plasma was depleted of high and medium abundance proteins using a commercial immunoaffinity column, IgY14-Supermix (Sigma). CSF was depleted of only 14 high abundance proteins using MARS-14 (Agilent). All samples were digested with trypsin and plasma samples were fractionated by strong cation exchange chromatography (3 fractions). Both CSF and plasma samples were analyzed using a NanoAcquity UPLC coupled to a Q Exactive MS. […] The 12 most intense peaks per survey scan with charge states 2-8 fragmented and scanned with a mass range from 200 to 2000 m/z at a resolution of 17,500. Raw spectrometer data files for each LC-MS run were aligned independently using Elucidator software (Rosetta Biosoftware). The MS/MS spectra were matched to corresponding peptide sequences found in the Uniprot Human protein database (January 2017) using Mascot software, allowing for up to 2 missed cleavages, a peptide tolerance of 20 ppm, and an MS/MS tolerance of 0.05 Da. Outlier detection was performed by determining the average log-intensity of all isotope groups (IG) over injection order for all samples. Samples with an average value greater than 2 standard deviations from the mean were flagged for investigation. Following data transformation and normalization, expression analysis of the identified isotope groups was performed and the statistical significance of each comparison was assessed with a parametric, linear mixed model (LMM) and a non-parametric Wilcoxon ranked test (ranked p-values). Expression analysis was also performed at the peptide and protein levels, which used the same methodology as above, but applied to peptide/protein intensities, derived by rolling-up the corresponding isotope group intensities. Isotope groups not detected in at least half of the samples in either of the two groups being compared were not used for the roll-up.

[1] = plasma, treated group vs baseline

## CC(C)(C)Oc1cc(CCC(C)(C)N2Cc3ccc(S(C)(=O)=O)cc3C2)ccc1O [CT1812]
CSF & Plasma
  Sema3F, % change treated vs placebo: 47%
CSF & Plasma, direction of change
  Sema3F, With CT1812: significantly increased and ↑*
CSF & Plasma, treated group vs baseline
  Sema3F, % change baseline treated: 10%
plasma
  ACOX1, % change treated vs placebo: 42%
  ANXA1, % change treated vs placebo: −61%
  ANXA2, % change treated vs placebo: −54%
  AZGP1, % change treated vs placebo: 28%
  B4GALT1, % change treated vs placebo: 36%
  C4BPA, % change treated vs placebo: 44%
  CFH, % change treated vs placebo: 20%
  Cathepsin S, % change treated vs placebo: 58%
  Clusterin, % change treated vs placebo: 17%
  FUT11, % change treated vs placebo: 39%
  GALT6, % change treated vs placebo: 33%
  GPR116, % change treated vs placebo: 27%
  GXYLT1, % change treated vs placebo: 82%
  HINT1, % change treated vs placebo: −131%
  HMGB1, % change treated vs placebo: −315%
  HRG, % change treated vs placebo: 61%
  Hex A, % change treated vs placebo: 34%
  Hex B, % change treated vs placebo: 36%
  LCAT, % change treated vs placebo: 17%
  NRP2, % change treated vs placebo: 46%
  Neprilysin, % change treated vs placebo: 4717%
  PCK2, % change treated vs placebo: 74%
  POMGNT1, % change treated vs placebo: 41%
  PRDX6, % change treated vs placebo: −130%
  SERPING1, % change treated vs placebo: 24%
  ST3GAL1, % change treated vs placebo: 31%
  SUMO3, % change treated vs placebo: −77%
  TRIM35, % change treated vs placebo: 99%
  TXN, % change treated vs placebo: −98%
  WDR81, % change treated vs placebo: 142%
plasma, direction of change
  ACOX1, With CT1812: ↑*
  ANXA1, With CT1812: significantly reduced and ↓*
  ANXA2, With CT1812: ↓*
  AZGP1, With CT1812: ↑*
  B4GALT1, With CT1812: ↑*
  C4BPA, With CT1812: significantly increased and ↑*
  CFH, With CT1812: ↑*
  Cathepsin S, With CT1812: significantly increase and ↑*
  Clusterin, With CT1812: increased and ↑
  FUT11, With CT1812: ↑*
  GALT6, With CT1812: ↑*
  GPR116, With CT1812: ↑
  GXYLT1, With CT1812: significantly increased and ↑*
  HINT1, With CT1812: significantly reduced and ↓*
  HMGB1, With CT1812: significantly reduced and ↓*
  HRG, With CT1812: significantly increased and ↑*
  Hex A, With CT1812: significantly increased and ↑*
  Hex B, With CT1812: significantly increased and ↑*
  LCAT, With CT1812: ↑
  NRP2, With CT1812: ↑*
  Neprilysin, With CT1812: ↑*
  PCK2, With CT1812: ↑
  POMGNT1, With CT1812: ↑*
  PRDX6, With CT1812: ↓*
  SERPING1, With CT1812: significantly increased and ↑*
  ST3GAL1, With CT1812: ↑*
  SUMO3, With CT1812: ↓*
  TRIM35, With CT1812: ↑*
  TXN, With CT1812: significantly reduced and ↓*
  WDR81, With CT1812: significantly increased and ↑*
plasma, direction of change, listed as CT-1812
  GALT6, With CT1812: significantly increased
[1]
  ACOX1, % change baseline treated: 10%
  ANXA1, % change baseline treated: −18%
  ANXA2, % change baseline treated: −20%
  AZGP1, % change baseline treated: 5%
  B4GALT1, % change baseline treated: 16%
  C4BPA, % change baseline treated: 21%
  CFH, % change baseline treated: 6%
  Cathepsin S, % change baseline treated: 27%
  Clusterin, % change baseline treated: 4%
  FUT11, % change baseline treated: 18%
  GALT6, % change baseline treated: 15%
  GPR116, % change baseline treated: 9%
  GXYLT1, % change baseline treated: 38%
  HINT1, % change baseline treated: −43%
  HMGB1, % change baseline treated: −67%
  HRG, % change baseline treated: 10%
  Hex A, % change baseline treated: 13%
  Hex B, % change baseline treated: 19%
  LCAT, % change baseline treated: 6%
  NRP2, % change baseline treated: 10%
  Neprilysin, % change baseline treated: 48%
  PCK2, % change baseline treated: 76%
  POMGNT1, % change baseline treated: 14%
  PRDX6, % change baseline treated: −37%
  SERPING1, % change baseline treated: 4%
  ST3GAL1, % change baseline treated: 5%
  SUMO3, % change baseline treated: −35%
  TRIM35, % change baseline treated: 3%
  TXN, % change baseline treated: −33%
  WDR81, % change baseline treated: 33%
With treatment
  GALNT1, GALNT2, GALNT4, and GALNT5 expression: increase with treatment
